Laboratory results from patent US20160257651A1, “NOVEL COMPOUND WITH ANTIBACTERIAL ACTIVITY” (priority 2013, published 2016).
≈ marks a conversion by molar mass, not a printed value. Where two headings read alike, the source gives them in different places.

How the values were obtained:
[1] = test system: S. aureus MR5867 one-step mutant; assay: MIC against stepwise QRDR mutants; assay type: cell-based; details: Staphylococcus aureus
Description: (§1) The strains used for this test example are available from the inventors of the present invention.
(§2) Then, the cell suspension was diluted 500 times with CAMHB mentioned above.

[2] = test system: S. aureus MS5952 one-step mutant; assay: MIC against stepwise QRDR mutants; assay type: cell-based; details: Staphylococcus aureus
Description: as §1, §2

S. aureus Mu50 NR1-1 = assay: microbe, parasite or virus in culture; assay type: cell-based; details: Staphylococcus aureus, MU50NR11
Description: as §2

E. faecium NCTC12204 = assay: MIC against Enterococcus bacteria; assay type: cell-based; details: NCTC 12204 / VRE
Description: (§3) Antibacterial activities of the compound J-131CP against Enterococcus bacteria (Enterococcus faecium and Enterococcus faecalis) were examined by the following methods.
(§4) The compound J-131CP and quinolones were prepared in the same manner as that of Test Example 1-1.
(§5) Cell suspensions were prepared in the same manner as that of Test Example 1-1 described in the section of measurement of MIC in Test Example 1-1, except that the Enterococcus bacterium strains mentioned in Table 8 were used instead of Staphylococcus aureus, and MICs of the compound J-131CP and quinolones as control were determined for the strains in the same manner as that of Test Example 1-1 described in the section of measurement of MIC in Test Example 1-1. In Table 8, the amino acid substitution mutations in QRDR of the strains are underlined.

E. faecalis 36-15747 = assay: MIC against Enterococcus bacteria; assay type: cell-based; details: 3615747, ParC 80Ile
Description: as §3, §4, §5

E. faecium RPR10 = assay: MIC against Enterococcus bacteria; assay type: cell-based
Description: as §3, §4, §5

E. faecalis NCTC12203 = assay: MIC against Enterococcus bacteria; assay type: cell-based; details: NCTC 12203 / VRE
Description: as §3, §4, §5

E. faecalis NCTC12201 = assay: MIC against Enterococcus bacteria; assay type: cell-based; details: Enterococcus faecalis, NCTC 12201 / VRE, quinolone-susceptible
Description: as §3, §4, §5

S. aureus MR5867 = assay: MIC against stepwise QRDR mutants; assay type: cell-based; details: Staphylococcus aureus
From the text: (§6) In order to further verify that the action site of the compound J-131CP is gyrA, there were examined antibacterial activities against the MRSA, S. aureus MR5867, and stepwise-mutated strains (one-step mutant strain to three-step mutant strain) of S. aureus MR5867 in which mutation was introduced into QRDR, as well as the MSSA, S. aureus MS5952, and stepwise-mutated strains (one-step mutant strain to three-step mutant strain) of S. aureus MS5952 in which mutation was introduced into QRDR (those strains mentioned above are described in Antimicrob. Agents Chemother., 42(8), pp. 1917-1922, 1998) by the following methods. The strains used for this test example are available from the inventors of the present invention.
as §4, §2
(§7) CAMHB containing each of the compound J-131CP and quinolones at each concentration was added to each well of a 96-well plate in a volume of 50 μL/well, the aforementioned cell suspension diluted 500 times was added to the well in a volume of 50 μL/well, and stationary culture was carried out overnight at 37° C. in the same manner as that of Test Example 1-1.

S. aureus MS5952 = assay: MIC against stepwise QRDR mutants; assay type: cell-based; details: Staphylococcus aureus
From the text: as §6, §4, §2, §7

[3] = test system: S. aureus MS5952 two-step mutant; assay: MIC against stepwise QRDR mutants; assay type: cell-based; details: Staphylococcus aureus
From the text: as §6, §4, §2, §7

[4] = test system: S. aureus MS5952 three-step mutant; assay: MIC against stepwise QRDR mutants; assay type: cell-based; details: Staphylococcus aureus
From the text: as §6, §4, §2, §7

[5] = test system: S. aureus MR5867 two-step mutant; assay: MIC against stepwise QRDR mutants; assay type: cell-based; details: Staphylococcus aureus
From the text: as §6, §4, §2, §7

[6] = test system: S. aureus MR5867 three-step mutant; assay: MIC against stepwise QRDR mutants; assay type: cell-based; details: Staphylococcus aureus
From the text: as §6, §4, §2, §7

E. faecium RPR2 = assay: MIC against Enterococcus bacteria; assay type: cell-based, Enterococcus faecium
Description: as §3, §4, §5

E. faecium NCTC12202 = assay: MIC against Enterococcus bacteria; assay type: cell-based, Enterococcus faecium; details: Enterococcus faecium, NCTC 12202 / VRE
Description: as §3, §4, §5

S. pneumoniae KBSP11 = assay: MIC against pneumococcus, CAMHB with 5 mass % LHB; assay type: cell-based, Streptococcus pneumoniae; details: Streptococcus pneumoniae
Description: (§8) The S. pneumoniae strains used for this test belong to any one of the categories of penicillin-susceptible pneumococcus (penicillin-susceptible Streptococcus pneumoniae, PSSP), penicillin-intermediate pneumococcus (penicillin-intermediate Streptococcus pneumoniae, PISP), and penicillin-resistant pneumococcus (penicillin-resistant Streptococcus pneumoniae, PRSP).
(§9) The lysed horse blood was prepared by adding sterilized water to horse sterile defibered blood (produced by Nippon Bio-Supp. Center) at a ratio of 1:1, subjecting the mixture to freezing and thawing 5 times, then centrifuging the mixture twice at 10,000 rpm for 20 minutes, and filtering the supernatant through a filter.
(§10) The S. pneumoniae strains mentioned in Table 11 were each cultured overnight at 37° C. on a blood agar medium as stationary culture. The blood agar medium was prepared by adding 5 mass % ovine sterile defibered blood (produced by Nippon Bio-Supp. Center) to a heart infusion agar medium (produced by EIKEN CHEMICAL). Each S. pneumoniae strain cultured overnight at 37° C. as stationary culture was further subcultured overnight at 37° C. on fresh blood agar medium as stationary culture. After completion of the culture, cells of each pneumococcus strain were collected with a swab, and suspended in physiological saline, and the suspension was adjusted with physiological saline to show absorbance of 0.08 to 0.13 at 625 nm as measured with an absorbance meter (produced by Amersham), and further diluted 200 times with CAMHB containing 5 mass % LHB.
(§11) In Table 11, the amino acid substitution mutations in QRDR of the strains are underlined.

S. pneumoniae BCLSP37 = assay: MIC against pneumococcus, CAMHB with 5 mass % LHB; assay type: cell-based, Streptococcus pneumoniae; details: Streptococcus pneumoniae, BCLSP37, S. pneumoniae BCLSP37, PSSP, quinolone-resistant; ParC 79Phe, GyrA 85Lys; read-out: MIC
Description: as §8, §9, §10, §11

S. aureus Mu50 = assay: microbe, parasite or virus in culture; assay type: cell-based, Staphylococcus aureus; details: for MIC ratio (Mu50 MIC/FDA209P MIC): MIC for S. aureus Mu50 / MIC for S. aureus FDA209P; for MIC: S. aureus Mu50, quinolone-resistant MRSA, ParC S80F, GyrA S84L
Description: as §2

[7] = test system: S. aureus FDA209P (ATCC 6538P); assay: microbe, parasite or virus in culture; assay type: cell-based, Staphylococcus aureus; details: Staphylococcus aureus, ATCC 6538P / FDA209P / MSSA, quinolone-susceptible MSSA, ParC 80S, GyrA 84S, read-out: MIC
Description: as §2

[8] = E. faecium NCTC12204, VRE, read-out: MIC
[9] = E. faecium RPR10, read-out: MIC
[10] = E. faecalis NCTC12203, VRE, read-out: MIC
[11] = E. faecium NCTC12202, VRE, quinolone-susceptible, read-out: MIC
[12] = S. pneumoniae KBSP11, PRSP, quinolone-susceptible, read-out: MIC

SMILES: CC1COc2c(N3CCN(C)CC3)c(F)cc3c(=O)c(C(=O)O)cn1c23 (stereo not drawn) [OFX, ofloxacin]
- MIC [1]: 1 µg/mL (≈ 2.77 µM)
- MIC [2]: 1 µg/mL (≈ 2.77 µM)
- MIC (S. aureus Mu50 NR1-1): 2 µg/mL (≈ 5.53 µM)
- MIC (E. faecium NCTC12204; [8]): 4 µg/mL (≈ 11.1 µM)
- MIC (E. faecalis 36-15747): 4 µg/mL (≈ 11.1 µM)
- MIC (E. faecium RPR10; [9]): 2 µg/mL (≈ 5.53 µM)
- MIC (E. faecalis NCTC12203; [10]): 4 µg/mL (≈ 11.1 µM)
- MIC (E. faecalis NCTC12201; read-out: MIC): 2 µg/mL (≈ 5.53 µM)
- MIC (S. aureus MR5867): 0.25 µg/mL (≈ 0.692 µM)
- MIC (S. aureus MS5952): 0.25 µg/mL (≈ 0.692 µM)
- MIC [3]: 8 µg/mL (≈ 22.1 µM)
- MIC [4]: 64 µg/mL (≈ 177 µM)
- MIC [5]: 16 µg/mL (≈ 44.3 µM)
- MIC [6]: 64 µg/mL (≈ 177 µM)
- MIC (E. faecium RPR2; Enterococcus faecium, RPR2): > 128 µg/mL
- MIC (E. faecium NCTC12202; [11]): 1 µg/mL (≈ 2.77 µM)
- MIC (S. pneumoniae KBSP11; [12]): 0.5 µg/mL (≈ 1.38 µM)
- MIC (S. pneumoniae BCLSP37): 32 µg/mL (≈ 88.6 µM)
- MIC ratio (Mu50 MIC/FDA209P MIC) (S. aureus Mu50): 128
- MIC (S. aureus Mu50): 16 µg/mL (≈ 44.3 µM)
- MIC (S. aureus Mu50; Staphylococcus aureus, MRSA): 8 to 128 µg/mL (≈ 22.1 to 354 µM)
- MIC [7]: 0.125 µg/mL (≈ 0.346 µM)

SMILES: O=c1cc(CO)c2cc(F)c(-c3ccc(O)cc3)cc2n1C1CC1 [J-131CP, 1-cyclopropyl-6-fluoro-4-(hydroxymethyl)-7-(4-hydroxyphenyl)-1,2-dihydroquinolin-2-one]
- MIC [1]: 0.25 µg/mL (≈ 0.768 µM)
- MIC [2]: 0.25 µg/mL (≈ 0.768 µM)
- MIC (S. aureus Mu50 NR1-1): 0.25 µg/mL (≈ 0.768 µM)
- MIC (E. faecium NCTC12204): 8 µg/mL (≈ 24.6 µM)
- MIC (E. faecalis 36-15747): 0.5 µg/mL (≈ 1.54 µM)
- MIC (E. faecium RPR10; RPR10): 4 µg/mL (≈ 12.3 µM)
- MIC (E. faecalis NCTC12203): 2 µg/mL (≈ 6.15 µM)
- MIC (E. faecalis NCTC12201): 0.5 µg/mL (≈ 1.54 µM)
- MIC (S. aureus MR5867): 0.25 µg/mL (≈ 0.768 µM)
- MIC (S. aureus MS5952): 0.25 µg/mL (≈ 0.768 µM)
- MIC [3]: 0.125 µg/mL (≈ 0.384 µM)
- MIC [4]: 0.125 µg/mL (≈ 0.384 µM)
- MIC [5]: > 0.06 µg/mL
- MIC [6]: ≤ 0.06 µg/mL
- MIC (E. faecium RPR2; Enterococcus faecium, RPR2): 4 µg/mL (≈ 12.3 µM)
- MIC (E. faecium NCTC12202): 8 µg/mL (≈ 24.6 µM)
- MIC (S. pneumoniae KBSP11; PRSP): 2 µg/mL (≈ 6.15 µM)
- MIC (S. pneumoniae BCLSP37): 4 µg/mL (≈ 12.3 µM)
- MIC ratio (Mu50 MIC/FDA209P MIC) (S. aureus Mu50): ≦0.25
- MIC (S. aureus Mu50; Staphylococcus aureus, MRSA): ≤ 0.06 µg/mL
- MIC [7]: 0.25 µg/mL (≈ 0.768 µM)

SMILES: C[C@H]1COc2c(N3CCN(C)CC3)c(F)cc3c(=O)c(C(=O)O)cn1c23 [LVX, levofloxacin]
- MIC [1]: 1 µg/mL (≈ 2.77 µM)
- MIC [2]: 0.5 µg/mL (≈ 1.38 µM)
- MIC (S. aureus Mu50 NR1-1): 1 µg/mL (≈ 2.77 µM)
- MIC (E. faecium NCTC12204; [8]): 2 µg/mL (≈ 5.53 µM)
- MIC (E. faecalis 36-15747): 2 µg/mL (≈ 5.53 µM)
- MIC (E. faecium RPR10; [9]): 1 µg/mL (≈ 2.77 µM)
- MIC (E. faecalis NCTC12203; [10]): 2 µg/mL (≈ 5.53 µM)
- MIC (E. faecalis NCTC12201; read-out: MIC): 1 µg/mL (≈ 2.77 µM)
- MIC (S. aureus MR5867): 0.125 µg/mL (≈ 0.346 µM)
- MIC (S. aureus MS5952): 0.25 µg/mL (≈ 0.692 µM)
- MIC [3]: 4 µg/mL (≈ 11.1 µM)
- MIC [4]: 32 µg/mL (≈ 88.6 µM)
- MIC [5]: 8 µg/mL (≈ 22.1 µM)
- MIC [6]: 16 µg/mL (≈ 44.3 µM)
- MIC (E. faecium RPR2; E. faecium RPR2, quinolone-resistant, ParC 82Ile, GyrA 84Ile 88Lys): >128 µg/mL
- MIC (E. faecium RPR2; Enterococcus faecium, RPR2): > 128 µg/mL
- MIC (E. faecium NCTC12202; [11]): 1 µg/mL (≈ 2.77 µM)
- MIC (S. pneumoniae KBSP11; [12]): 1 µg/mL (≈ 2.77 µM)
- MIC (S. pneumoniae BCLSP37): 32 µg/mL (≈ 88.6 µM)
- MIC ratio (Mu50 MIC/FDA209P MIC) (S. aureus Mu50): ≧128
- MIC (S. aureus Mu50): 8 µg/mL (≈ 22.1 µM)
- MIC (S. aureus Mu50; Staphylococcus aureus, MRSA): 8 to 128 µg/mL (≈ 22.1 to 354 µM)
- MIC [7]: ≤ 0.06 µg/mL
